# Data published in ChEMBL document CHEMBL3046389, “Synthesis and biological evaluation of novel hydroquinone dimethyl ethers as potential anticancer and antimicrobial agents” (2013).
# Tests used:
# Type in all cases: functional
# SNB-19 = experiment: Growth inhibition of Homo sapiens (human) SNB19 cells at 10 uM after 48 hr by SRB assay; details: SNB-19, 48 h, read-out: GI
# SW-620 [1] = experiment: Growth inhibition of Homo sapiens (human) SW620 cells at 10 uM after 48 hr by SRB assay; details: SW-620, 48 h, read-out: GI
# SK-MEL-28 = experiment: Anticancer activity against Homo sapiens (human) SK-MEL-28 cells after 48 hr by SRB assay; details: SK-MEL-28, 48 h
# SF-539 [2] = experiment: Growth inhibition of Homo sapiens (human) SF539 cells at 10 uM after 48 hr by SRB assay; details: SF-539, 48 h, read-out: GI
# MCF7 = experiment: Growth inhibition of Homo sapiens (human) MCF7 cells at 10 uM after 48 hr by SRB assay; details: MCF7, 48 h, read-out: GI
# HCT-15 = experiment: Anticancer activity against Homo sapiens (human) HCT15 cells after 48 hr by SRB assay; details: HCT-15, 48 h; for CC50: read-out: LC50 (the source's name)
# OVCAR-3 = experiment: Growth inhibition of Homo sapiens (human) OVCAR3 cells at 10 uM after 48 hr by SRB assay; details: OVCAR-3, 48 h, read-out: GI
# SR = experiment: Anticancer activity against Homo sapiens (human) SR cells after 48 hr by SRB assay
# ACHN = experiment: Growth inhibition of Homo sapiens (human) ACHN cells at 10 uM after 48 hr by SRB assay; details: read-out: GI
# PC-3 = experiment: Growth inhibition of Homo sapiens (human) PC3 cells at 10 uM after 48 hr by SRB assay; details: PC-3, 48 h, read-out: GI
# A549 [3] = experiment: Anticancer activity against Homo sapiens (human) A549/ATCC cells after 48 hr by SRB assay; details: A549, 48 h; for CC50: read-out: LC50 (the source's name)
# LOX IMVI [4] = experiment: Anticancer activity against Homo sapiens (human) LOXIMVI cells after 48 hr by SRB assay; details: for CC50: read-out: LC50 (the source's name)
# K562 = experiment: Anticancer activity against Homo sapiens (human) K562 cells after 48 hr by SRB assay; details: K562, 48 h; for CC50: read-out: LC50 (the source's name)
# SW-620 [5] = experiment: Anticancer activity against Homo sapiens (human) SW620 cells after 48 hr by SRB assay; details: SW-620, 48 h; for CC50: read-out: LC50 (the source's name)
# Candida albicans = experiment: Antimicrobial activity against Candida albicans DSM 70014 after 48 hr by two-fold serial broth dilution method; details: DSM 70014, 48 h
# M14 [6] = experiment: Growth inhibition of Homo sapiens (human) M14 cells at 10 uM after 48 hr by SRB assay; details: M14, 48 h, read-out: GI
# SNB-75 = experiment: Growth inhibition of Homo sapiens (human) SNB75 cells at 10 uM after 48 hr by SRB assay; details: SNB-75, 48 h, read-out: GI
# CCRF-CEM [7] = experiment: Anticancer activity against Homo sapiens (human) CCRF-CEM cells after 48 hr by SRB assay; details: for CC50: read-out: LC50 (the source's name)
# A549 [8] = experiment: Growth inhibition of Homo sapiens (human) A549/ATCC cells at 10 uM after 48 hr by SRB assay; details: A549, 48 h, read-out: GI
# CAKI-1 = experiment: Anticancer activity against Homo sapiens (human) CAKI-1 cells after 48 hr by SRB assay; details: CAKI-1, 48 h; for CC50: read-out: LC50 (the source's name)
# CCRF-CEM [9] = experiment: Growth inhibition of Homo sapiens (human) CCRF-CEM cells at 10 uM after 48 hr by SRB assay; details: read-out: GI
# HOP-62 = experiment: Growth inhibition of Homo sapiens (human) HOP62 cells at 10 uM after 48 hr by SRB assay; details: HOP-62, 48 h, read-out: GI
# Pseudomonas aeruginosa = experiment: Antimicrobial activity against Pseudomonas aeruginosa ATCC 10145 after 48 hr by two-fold serial broth dilution method; details: ATCC 10145, 48 h
# LOX IMVI [10] = experiment: Growth inhibition of Homo sapiens (human) LOXIMVI cells at 10 uM after 48 hr by SRB assay; details: read-out: GI
# Bacillus subtilis = experiment: Antimicrobial activity against Bacillus subtilis ATCC 6633 after 48 hr by two-fold serial broth dilution method; details: ATCC 6633, 48 h
# HT-29 = experiment: Growth inhibition of Homo sapiens (human) HT-29 cells at 10 uM after 48 hr by SRB assay; details: HT-29, 48 h, read-out: GI
# OVCAR-8 = experiment: Growth inhibition of Homo sapiens (human) OVCAR8 cells at 10 uM after 48 hr by SRB assay; details: OVCAR-8, 48 h, read-out: GI
# A498 = experiment: Anticancer activity against Homo sapiens (human) A498 cells after 48 hr by SRB assay; details: A498, 48 h
# NCI-H23 = experiment: Growth inhibition of Homo sapiens (human) NCI-H23 cells at 10 uM after 48 hr by SRB assay; details: NCI-H23, 48 h, read-out: GI
# Hs-578T = experiment: Anticancer activity against Homo sapiens (human) Hs 578T cells after 48 hr by SRB assay; details: for CC50: read-out: LC50 (the source's name)
# SK-MEL-2 = experiment: Anticancer activity against Homo sapiens (human) SK-MEL-2 cells after 48 hr by SRB assay; details: SK-MEL-2, 48 h; for CC50: read-out: LC50 (the source's name)
# M14 [11] = experiment: Anticancer activity against Homo sapiens (human) M14 cells after 48 hr by SRB assay; details: M14, 48 h
# Malme-3M = experiment: Anticancer activity against Homo sapiens (human) MALME-3M cells after 48 hr by SRB assay; details: for CC50: read-out: LC50 (the source's name)
# SF-539 [12] = experiment: Anticancer activity against Homo sapiens (human) SF539 cells after 48 hr by SRB assay; details: SF-539, 48 h; for CC50: read-out: LC50 (the source's name)
# MOLT-4 = experiment: Anticancer activity against Homo sapiens (human) MOLT4 cells after 48 hr by SRB assay; details: MOLT-4, 48 h; for CC50: read-out: LC50 (the source's name)
smiles,measurement,setting,value
COc1ccc(OC)c(/C=C/C(=O)N/N=C/c2ccc(Cl)cc2)c1,inhibition of growth at 10 µM,SNB-19,77.4%
same,inhibition of growth at 10 µM,SW-620 [1],80.1%
same,GI50,SK-MEL-28,0.372 µM
same,LC50 (concentration killing 50% of cells),SK-MEL-28,> 100 µM
same,TGI,SK-MEL-28,> 100 µM
same,inhibition of growth at 10 µM,SF-539 [2],143%
same,inhibition of growth at 10 µM,MCF7,91.1%
same,GI50,HCT-15,0.0835 µM
same,TGI,HCT-15,> 100 µM
same,CC50,HCT-15,> 100 µM
same,inhibition of growth at 10 µM,OVCAR-3,143%
same,GI50,SR,0.039 µM
same,TGI,SR,16.4 µM
same,CC50,SR; read-out: LC50 (the source's name),> 100 µM
same,inhibition of growth at 10 µM,ACHN,51.6%
same,inhibition of growth at 10 µM,PC-3,73.8%
same,GI50,A549 [3],0.242 µM
same,TGI,A549 [3],> 100 µM
same,CC50,A549 [3],> 100 µM
same,GI50,LOX IMVI [4],0.254 µM
same,TGI,LOX IMVI [4],> 100 µM
same,CC50,LOX IMVI [4],> 100 µM
same,GI50,K562,0.0488 µM
same,TGI,K562,> 100 µM
same,CC50,K562,> 100 µM
same,GI50,SW-620 [5],0.0813 µM
same,TGI,SW-620 [5],> 100 µM
same,CC50,SW-620 [5],> 100 µM
same,MFC,Candida albicans,50 µg/mL
same,MIC,Candida albicans,25 µg/mL
same,inhibition of growth at 10 µM,M14 [6],134%
same,inhibition of growth at 10 µM,SNB-75,56%
same,GI50,CCRF-CEM [7],0.228 µM
same,TGI,CCRF-CEM [7],> 100 µM
same,CC50,CCRF-CEM [7],> 100 µM
same,inhibition of growth at 10 µM,A549 [8],72.2%
same,GI50,CAKI-1,0.0879 µM
same,TGI,CAKI-1,> 100 µM
same,CC50,CAKI-1,> 100 µM
same,inhibition of growth at 10 µM,CCRF-CEM [9],86.3%
same,inhibition of growth at 10 µM,HOP-62,62.1%
same,MBC,Pseudomonas aeruginosa,50 µg/mL
same,MIC,Pseudomonas aeruginosa,50 µg/mL
same,inhibition of growth at 10 µM,LOX IMVI [10],63.3%
same,MBC,Bacillus subtilis,50 µg/mL
same,MIC,Bacillus subtilis,50 µg/mL
same,inhibition of growth at 10 µM,HT-29,93.5%
same,inhibition of growth at 10 µM,OVCAR-8,79%
same,GI50,A498,0.182 µM
same,LC50,A498,> 100 µM
same,TGI,A498,27.5 µM
same,inhibition of growth at 10 µM,NCI-H23,65.2%
same,GI50,Hs-578T,0.284 µM
same,TGI,Hs-578T,> 100 µM
same,CC50,Hs-578T,> 100 µM
same,GI50,SK-MEL-2,24.7 µM
same,TGI,SK-MEL-2,> 100 µM
same,CC50,SK-MEL-2,> 100 µM
same,GI50,M14 [11],0.0879 µM
same,LC50,M14 [11],> 100 µM
same,TGI,M14 [11],6.7 µM
same,TGI,Malme-3M,> 100 µM
same,CC50,Malme-3M,> 100 µM
same,GI50,SF-539 [12],0.258 µM
same,TGI,SF-539 [12],3.16 µM
same,CC50,SF-539 [12],> 100 µM
same,GI50,MOLT-4,0.523 µM
same,TGI,MOLT-4,> 100 µM
same,CC50,MOLT-4,> 100 µM
COc1ccc(OC)c(/C=C/C(=O)N/N=C/c2ccccc2)c1,inhibition of growth at 10 µM,SNB-19,52.1%
same,inhibition of growth at 10 µM,SW-620 [1],71.3%
same,GI50,SK-MEL-28,8.89 µM
same,LC50 (concentration killing 50% of cells),SK-MEL-28,> 100 µM
same,TGI,SK-MEL-28,> 100 µM
same,inhibition of growth at 10 µM,SF-539 [2],48.2%
same,inhibition of growth at 10 µM,MCF7,82.7%
same,GI50,HCT-15,3.62 µM
same,TGI,HCT-15,> 100 µM
same,CC50,HCT-15,> 100 µM
same,inhibition of growth at 10 µM,OVCAR-3,94%
same,inhibition of growth at 10 µM,ACHN,37.2%
same,inhibition of growth at 10 µM,PC-3,36.5%
same,GI50,A549 [3],4.29 µM
same,TGI,A549 [3],> 100 µM
same,CC50,A549 [3],> 100 µM
same,GI50,LOX IMVI [4],4.11 µM
same,TGI,LOX IMVI [4],> 100 µM
same,CC50,LOX IMVI [4],> 100 µM
same,GI50,K562,0.488 µM
same,TGI,K562,> 100 µM
same,CC50,K562,> 100 µM
same,GI50,SW-620 [5],1.5 µM
same,TGI,SW-620 [5],6.23 µM
same,CC50,SW-620 [5],> 100 µM
same,MFC,Candida albicans,100 µg/mL
same,MIC,Candida albicans,100 µg/mL
same,inhibition of growth at 10 µM,M14 [6],72.2%
same,inhibition of growth at 10 µM,SNB-75,58.9%
same,GI50,CCRF-CEM [7],3.97 µM
same,TGI,CCRF-CEM [7],> 100 µM
same,CC50,CCRF-CEM [7],> 100 µM
same,inhibition of growth at 10 µM,A549 [8],51.6%
same,GI50,CAKI-1,0.443 µM
same,TGI,CAKI-1,6.66 µM
same,CC50,CAKI-1,> 100 µM
same,inhibition of growth at 10 µM,CCRF-CEM [9],44.8%
same,inhibition of growth at 10 µM,HOP-62,32.7%
same,MBC,Pseudomonas aeruginosa,100 µg/mL
same,MIC,Pseudomonas aeruginosa,50 µg/mL
same,inhibition of growth at 10 µM,LOX IMVI [10],57.9%
same,MBC,Bacillus subtilis,100 µg/mL
same,MIC,Bacillus subtilis,50 µg/mL
same,inhibition of growth at 10 µM,HT-29,79.3%
same,inhibition of growth at 10 µM,OVCAR-8,45.2%
same,GI50,A498,12 µM
same,LC50,A498,> 100 µM
same,TGI,A498,> 100 µM
same,inhibition of growth at 10 µM,NCI-H23,34.9%
same,GI50,Hs-578T,9.07 µM
same,TGI,Hs-578T,> 100 µM
same,CC50,Hs-578T,> 100 µM
same,GI50,SK-MEL-2,2.98 µM
same,TGI,SK-MEL-2,9.32 µM
same,CC50,SK-MEL-2,> 100 µM
same,GI50,M14 [11],2.16 µM
same,LC50,M14 [11],> 100 µM
same,TGI,M14 [11],6.77 µM
same,GI50,Malme-3M,2.12 µM
same,TGI,Malme-3M,> 100 µM
same,CC50,Malme-3M,> 100 µM
same,GI50,SF-539 [12],4.42 µM
same,TGI,SF-539 [12],25.1 µM
same,CC50,SF-539 [12],> 100 µM
same,GI50,MOLT-4,4.45 µM
same,TGI,MOLT-4,> 100 µM
same,CC50,MOLT-4,> 100 µM
